Like-named read-outs stand apart in the source and are kept apart here.
Legend:
Aurora A = Aurora A (Homo sapiens (Human), UniProt O14965); assay: Dundee profiling
WNK1 = WNK1 (Homo sapiens (Human), UniProt Q9H4A3); assay: Dundee profiling
[1] = target: EGFR (L747-S752del, P753S) (Homo sapiens (Human), UniProt P00533, DEL747-752/P753S); assay: KinomeScan; type: binding; conditions: 1 uM
CDC2L5 = CDC2L5 (Homo sapiens (Human), UniProt Q14004); assay: KinomeScan; type: binding; conditions: 1 uM
Text: The kinase selectivity of Compound 18 was further evaluated by KinomeScan.

MNK1 = MNK1 (Homo sapiens (Human), UniProt Q9BUB5); assay: Dundee profiling
LRRK2 = LRRK2 (Mus musculus (Mouse), UniProt Q5S006); assay: Pharmacodynamic study, LRRK2 Ser910/Ser935 phosphorylation in mouse kidney, spleen and brain; type: in vivo
Sequence of LRRK2 (Q5S006 whole entry, looked up): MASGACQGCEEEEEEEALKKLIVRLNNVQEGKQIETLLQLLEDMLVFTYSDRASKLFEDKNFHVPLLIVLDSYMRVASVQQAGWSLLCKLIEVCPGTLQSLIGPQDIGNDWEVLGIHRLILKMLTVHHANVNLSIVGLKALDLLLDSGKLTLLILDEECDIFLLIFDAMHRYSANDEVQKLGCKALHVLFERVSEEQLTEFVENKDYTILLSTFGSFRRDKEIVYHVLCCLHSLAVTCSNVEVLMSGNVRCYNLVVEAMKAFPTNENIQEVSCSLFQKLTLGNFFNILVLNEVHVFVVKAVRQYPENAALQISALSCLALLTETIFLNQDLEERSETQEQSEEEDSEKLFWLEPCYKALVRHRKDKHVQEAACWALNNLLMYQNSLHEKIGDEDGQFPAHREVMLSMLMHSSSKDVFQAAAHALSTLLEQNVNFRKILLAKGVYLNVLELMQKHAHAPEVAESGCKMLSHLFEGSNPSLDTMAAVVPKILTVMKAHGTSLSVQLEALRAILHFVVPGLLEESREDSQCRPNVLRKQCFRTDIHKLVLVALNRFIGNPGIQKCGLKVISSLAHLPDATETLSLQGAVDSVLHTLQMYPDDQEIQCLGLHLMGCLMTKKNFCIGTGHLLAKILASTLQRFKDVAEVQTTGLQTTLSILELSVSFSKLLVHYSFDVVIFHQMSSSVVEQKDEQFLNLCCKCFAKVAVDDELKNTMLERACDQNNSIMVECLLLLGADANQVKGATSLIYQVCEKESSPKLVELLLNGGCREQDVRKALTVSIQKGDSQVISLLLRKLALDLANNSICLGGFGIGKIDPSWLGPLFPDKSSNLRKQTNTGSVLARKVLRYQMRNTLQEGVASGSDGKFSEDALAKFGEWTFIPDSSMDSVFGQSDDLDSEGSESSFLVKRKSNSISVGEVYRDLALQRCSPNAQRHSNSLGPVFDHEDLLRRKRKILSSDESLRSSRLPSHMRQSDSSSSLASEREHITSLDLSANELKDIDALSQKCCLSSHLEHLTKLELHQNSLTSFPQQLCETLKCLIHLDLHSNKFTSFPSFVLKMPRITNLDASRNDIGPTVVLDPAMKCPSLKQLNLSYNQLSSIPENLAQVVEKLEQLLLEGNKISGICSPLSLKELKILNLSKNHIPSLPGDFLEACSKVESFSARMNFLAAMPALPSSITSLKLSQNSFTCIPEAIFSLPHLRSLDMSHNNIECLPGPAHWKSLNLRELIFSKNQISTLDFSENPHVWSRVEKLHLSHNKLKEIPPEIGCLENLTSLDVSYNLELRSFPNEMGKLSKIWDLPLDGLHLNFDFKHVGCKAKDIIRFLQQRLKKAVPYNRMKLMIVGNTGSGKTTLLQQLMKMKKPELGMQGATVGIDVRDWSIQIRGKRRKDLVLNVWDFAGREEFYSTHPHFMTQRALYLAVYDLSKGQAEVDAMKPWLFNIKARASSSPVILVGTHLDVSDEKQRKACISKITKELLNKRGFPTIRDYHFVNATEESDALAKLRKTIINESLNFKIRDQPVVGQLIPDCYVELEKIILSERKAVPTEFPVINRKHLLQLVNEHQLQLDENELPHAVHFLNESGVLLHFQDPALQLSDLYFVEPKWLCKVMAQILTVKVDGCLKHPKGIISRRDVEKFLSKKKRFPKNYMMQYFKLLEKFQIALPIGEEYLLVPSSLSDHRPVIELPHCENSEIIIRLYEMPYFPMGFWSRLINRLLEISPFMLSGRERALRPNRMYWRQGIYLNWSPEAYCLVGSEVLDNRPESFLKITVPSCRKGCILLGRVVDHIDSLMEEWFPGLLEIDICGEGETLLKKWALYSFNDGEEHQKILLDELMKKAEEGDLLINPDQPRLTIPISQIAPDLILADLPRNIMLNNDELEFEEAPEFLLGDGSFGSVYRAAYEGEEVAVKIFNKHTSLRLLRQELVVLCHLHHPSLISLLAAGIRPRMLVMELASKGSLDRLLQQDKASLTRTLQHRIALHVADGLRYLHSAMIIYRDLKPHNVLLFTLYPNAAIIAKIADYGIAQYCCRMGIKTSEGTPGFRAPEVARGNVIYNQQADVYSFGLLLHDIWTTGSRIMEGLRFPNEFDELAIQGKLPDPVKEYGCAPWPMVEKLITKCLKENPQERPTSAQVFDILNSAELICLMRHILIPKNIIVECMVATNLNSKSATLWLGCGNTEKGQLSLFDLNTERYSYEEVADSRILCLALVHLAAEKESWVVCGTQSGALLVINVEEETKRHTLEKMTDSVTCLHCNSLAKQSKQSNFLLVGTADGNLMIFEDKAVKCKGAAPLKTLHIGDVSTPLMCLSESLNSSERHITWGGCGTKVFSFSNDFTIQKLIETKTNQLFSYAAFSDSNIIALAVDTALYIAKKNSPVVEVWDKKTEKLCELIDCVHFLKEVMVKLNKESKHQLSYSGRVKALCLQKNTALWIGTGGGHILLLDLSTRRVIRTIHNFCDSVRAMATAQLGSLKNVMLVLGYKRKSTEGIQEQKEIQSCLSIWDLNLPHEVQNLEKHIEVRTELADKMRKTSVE

MAP4K3 = MAP4K3 (Homo sapiens (Human), UniProt Q8IVH8); assay: KinomeScan; type: binding; conditions: 1 uM
STK33 = STK33 (Homo sapiens (Human), UniProt Q9BYT3); assay: Dundee profiling
EPH-A4 = EPH-A4 (Homo sapiens (Human), UniProt P54764); assay: Dundee profiling
MLK3 [2] = target: T1, MLK3 (Homo sapiens (Human), UniProt Q16584); assay: Dundee profiling
Target sequence in this assay (Q16584 whole entry, looked up, species assumed): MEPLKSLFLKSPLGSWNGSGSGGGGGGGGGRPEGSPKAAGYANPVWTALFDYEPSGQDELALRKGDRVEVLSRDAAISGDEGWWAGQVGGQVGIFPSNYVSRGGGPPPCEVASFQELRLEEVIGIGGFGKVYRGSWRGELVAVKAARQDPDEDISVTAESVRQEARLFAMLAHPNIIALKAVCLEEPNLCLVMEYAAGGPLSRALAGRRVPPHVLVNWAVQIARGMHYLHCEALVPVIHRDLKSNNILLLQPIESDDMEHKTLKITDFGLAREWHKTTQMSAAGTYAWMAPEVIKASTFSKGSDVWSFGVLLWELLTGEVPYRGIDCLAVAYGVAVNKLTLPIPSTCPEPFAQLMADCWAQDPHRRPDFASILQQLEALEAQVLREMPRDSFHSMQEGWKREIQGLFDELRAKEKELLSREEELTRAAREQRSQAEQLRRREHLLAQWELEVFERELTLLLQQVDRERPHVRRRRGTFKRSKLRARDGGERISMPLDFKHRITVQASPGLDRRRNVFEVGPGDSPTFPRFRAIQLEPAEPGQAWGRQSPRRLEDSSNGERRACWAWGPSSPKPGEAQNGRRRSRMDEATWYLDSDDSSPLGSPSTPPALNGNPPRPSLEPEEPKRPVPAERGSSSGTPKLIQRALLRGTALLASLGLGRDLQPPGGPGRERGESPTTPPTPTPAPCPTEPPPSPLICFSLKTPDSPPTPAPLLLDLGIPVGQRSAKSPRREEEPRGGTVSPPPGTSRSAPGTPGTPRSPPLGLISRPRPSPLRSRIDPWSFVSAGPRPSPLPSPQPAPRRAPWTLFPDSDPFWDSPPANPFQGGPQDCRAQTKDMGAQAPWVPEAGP

CDK2-Cyclin A = CDK2-Cyclin A (Homo sapiens (Human), UniProt P24941); assay: Dundee profiling
YES1 = YES1 (Homo sapiens (Human), UniProt P07947); assay: Dundee profiling
TIE2 = TIE2 (Homo sapiens (Human), UniProt Q02763); assay: Dundee profiling
SGK1 = SGK1 (Homo sapiens (Human), UniProt O00141); assay: Dundee profiling
MARK4 = MARK4 (Homo sapiens (Human), UniProt Q96L34); assay: KinomeScan; type: binding; conditions: 1 uM
DLK = DLK (Homo sapiens (Human), UniProt Q12852); assay: KinomeScan; type: binding; conditions: 1 uM
MLK3 [3] = target: T1, MLK3; assay: KinomeScan; type: binding; conditions: 1 uM
Target sequence in this assay (Q16584 whole entry, looked up): as the sequence (Q16584 whole entry, looked up, species assumed) above

FLT3 (ITD) = assay: KinomeScan; type: binding; conditions: 1 uM
MAPKAP-K3 = MAPKAP-K3 (Homo sapiens (Human), UniProt Q16644); assay: Dundee profiling
Sequence of MAPKAP-K3 (Q16644 whole entry, species assumed): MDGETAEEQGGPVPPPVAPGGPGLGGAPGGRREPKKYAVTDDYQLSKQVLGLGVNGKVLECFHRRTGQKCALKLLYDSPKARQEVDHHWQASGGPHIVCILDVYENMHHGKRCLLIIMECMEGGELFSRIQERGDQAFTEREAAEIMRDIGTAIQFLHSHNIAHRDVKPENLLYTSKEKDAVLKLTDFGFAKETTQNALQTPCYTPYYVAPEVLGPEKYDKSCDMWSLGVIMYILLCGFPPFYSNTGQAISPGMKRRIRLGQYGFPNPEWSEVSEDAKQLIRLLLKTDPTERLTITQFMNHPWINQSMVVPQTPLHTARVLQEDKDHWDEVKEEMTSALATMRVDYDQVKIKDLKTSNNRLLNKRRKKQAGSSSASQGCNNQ

JNK2 = JNK2 (Homo sapiens (Human), UniProt P45984); assay: Dundee profiling
Sequence of JNK2 (P45984 whole entry, species assumed): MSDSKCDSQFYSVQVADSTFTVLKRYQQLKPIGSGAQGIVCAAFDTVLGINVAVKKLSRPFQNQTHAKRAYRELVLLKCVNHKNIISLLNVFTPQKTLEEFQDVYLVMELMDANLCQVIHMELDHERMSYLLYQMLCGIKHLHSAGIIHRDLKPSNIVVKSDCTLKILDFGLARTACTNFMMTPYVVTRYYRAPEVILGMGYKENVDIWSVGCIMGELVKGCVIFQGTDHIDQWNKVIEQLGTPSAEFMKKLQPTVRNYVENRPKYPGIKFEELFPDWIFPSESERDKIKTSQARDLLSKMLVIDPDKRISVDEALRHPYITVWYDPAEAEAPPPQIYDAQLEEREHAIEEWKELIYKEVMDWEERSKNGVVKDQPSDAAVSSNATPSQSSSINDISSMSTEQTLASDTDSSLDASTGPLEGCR

ASK1 = ASK1 (Homo sapiens (Human), UniProt Q99683); assay: Dundee profiling
[4] = target: JAK1 (JH1domain-catalytic) (Homo sapiens (Human), UniProt P23458); assay: KinomeScan; type: binding; conditions: 1 uM
ULK1 = ULK1 (Homo sapiens (Human), UniProt O75385); assay: Dundee profiling
SNARK = SNARK (Homo sapiens (Human), UniProt Q9H093); assay: KinomeScan; type: binding; conditions: 1 uM
BMPR2 = BMPR2 (Homo sapiens (Human), UniProt Q13873); assay: KinomeScan; type: binding; conditions: 1 uM
MST3 [5] = target: T2, MST3 (Homo sapiens (Human), UniProt Q9Y6E0); assay: Dundee profiling
T2 sequence (Q9Y6E0 whole entry, species assumed): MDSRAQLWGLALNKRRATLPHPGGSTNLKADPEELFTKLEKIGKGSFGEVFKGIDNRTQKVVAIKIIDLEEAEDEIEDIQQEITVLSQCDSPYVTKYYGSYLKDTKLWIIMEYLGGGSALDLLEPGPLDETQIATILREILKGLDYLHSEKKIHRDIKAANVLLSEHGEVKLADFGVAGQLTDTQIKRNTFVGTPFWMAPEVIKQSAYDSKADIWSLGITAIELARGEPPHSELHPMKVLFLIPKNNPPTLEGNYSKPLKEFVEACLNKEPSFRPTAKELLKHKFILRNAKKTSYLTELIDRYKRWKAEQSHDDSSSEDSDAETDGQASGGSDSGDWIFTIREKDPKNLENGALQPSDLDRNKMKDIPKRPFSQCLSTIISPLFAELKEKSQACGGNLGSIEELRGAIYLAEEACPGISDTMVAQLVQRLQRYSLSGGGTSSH

IRR = IRR (Homo sapiens (Human), UniProt P14616); assay: Dundee profiling
MARK2 = MARK2 (Homo sapiens (Human), UniProt Q7KZI7); assay: Dundee profiling
JNK1 = JNK1 (Homo sapiens (Human), UniProt P45983); assay: KinomeScan; type: binding; conditions: 1 uM
MST3 [6] = target: T2, MST3; assay: KinomeScan; type: binding; conditions: 1 uM
p38g MAPK = p38g MAPK (Homo sapiens (Human), UniProt P53778); assay: Dundee profiling
[7] = target: EGFR (L747-T751del, Sins) (Homo sapiens (Human), UniProt P00533, DEL747-751/INS746S); assay: KinomeScan; type: binding; conditions: 1 uM
TBK1 = TBK1 (Homo sapiens (Human), UniProt Q9UHD2); assay: Dundee profiling
ACVR2B = ACVR2B (Homo sapiens (Human), UniProt Q13705); assay: KinomeScan; type: binding; conditions: 1 uM
[8] = read-out: percent remaining enzymatic activity, I1, 1 μM
[9] = read-out: percent remaining enzymatic activity, I10
[10] = read-out: percent remaining enzymatic activity

Sequence of Aurora A (O14965 whole entry): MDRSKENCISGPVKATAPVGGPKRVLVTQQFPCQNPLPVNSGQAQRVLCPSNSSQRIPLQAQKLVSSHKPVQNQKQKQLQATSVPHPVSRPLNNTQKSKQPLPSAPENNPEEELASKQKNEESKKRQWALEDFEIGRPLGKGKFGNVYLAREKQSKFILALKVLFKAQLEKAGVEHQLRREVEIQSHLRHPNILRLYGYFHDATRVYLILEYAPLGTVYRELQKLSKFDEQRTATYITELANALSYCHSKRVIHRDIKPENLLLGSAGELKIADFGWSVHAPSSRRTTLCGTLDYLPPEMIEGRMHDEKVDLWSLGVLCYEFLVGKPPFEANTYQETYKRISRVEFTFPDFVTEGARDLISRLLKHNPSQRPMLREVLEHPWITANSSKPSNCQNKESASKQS

Question: With `CNc1nc(Nc2ccc(C(=O)N3CCOCC3)cc2OC)nc2[nH]cc(Cl)c12` [Compound 18, (4-((5-chloro-4-(methylamino)-7H-pyrrolo[2,3-d]pyrimidin-2-yl)amino)-3-methoxyphenyl)(morpholino)methanone] as the compound, how does the remaining activity at 1 µM (Aurora A; [8]) read?
Answer: 124%

Question: What about the remaining activity at 1 µM (Aurora A; [9]) of the same compound?
Answer: 112%

Question: What about the “percent remaining enzymatic activity” value (WNK1; I10) of the same compound?
Answer: 115%

Question: What about the remaining activity at 1 µM (WNK1; [10]) of the same compound?
Answer: 108%

Question: And the KinomeScan value [1]?
Answer: 94

Question: And the KinomeScan value (CDC2L5)?
Answer: 100

Question: What about the remaining activity at 1 µM (MNK1; [8]) of the same compound?
Answer: 102%

Question: And the remaining activity at 1 µM (MNK1; [9])?
Answer: 78%

Question: And the “inhibition of LRRK2 Ser935 phosphorylation in brain” value (LRRK2; 10 mg/kg)?
Answer: only partial inhibition in brain

Question: And the “inhibition of LRRK2 Ser935 phosphorylation in tissues” value (LRRK2; 30 mg/kg)?
Answer: near complete inhibition in all tissues

Question: And the “dephosphorylation of Ser935 of LRRK2 in kidney, spleen and brain” value (LRRK2; 100 mg/kg, intraperitoneal)?
Answer: near complete dephosphorylation of Ser935 of LRRK2

Question: What about the KinomeScan value (MAP4K3) of the same compound?
Answer: 100

Question: What about the remaining activity at 1 µM (STK33; [8]) of the same compound?
Answer: 22%

Question: What about the remaining activity at 1 µM (STK33; [9]) of the same compound?
Answer: 15%

Question: And the remaining activity at 1 µM (EPH-A4; [8])?
Answer: 107%

Question: And the remaining activity at 1 µM (EPH-A4; [9])?
Answer: 102%

Question: What about the “percent remaining enzymatic activity” value (MLK3 [2]; I10) of the same compound?
Answer: 35%

Question: What about the remaining activity at 1 µM (MLK3 [2]; [10]) of the same compound?
Answer: 78%

Question: And the “percent remaining enzymatic activity” value (CDK2-Cyclin A; I10)?
Answer: 67%

Question: And the remaining activity at 1 µM (CDK2-Cyclin A; [10])?
Answer: 102%

Question: And the “percent remaining enzymatic activity” value (YES1; I10)?
Answer: 85%

Question: And the remaining activity at 1 µM (YES1; [10])?
Answer: 85%

Question: And the remaining activity at 1 µM (TIE2; [8])?
Answer: 104%

Question: What about the remaining activity at 1 µM (TIE2; [9]) of the same compound?
Answer: 94%

Question: And the remaining activity at 1 µM (SGK1; [8])?
Answer: 86%

Question: What about the remaining activity at 1 µM (SGK1; [9]) of the same compound?
Answer: 76%

Question: And the KinomeScan value (MARK4)?
Answer: 82

Question: What about the KinomeScan value (DLK) of the same compound?
Answer: 89

Question: What about the KinomeScan value (MLK3 [3]) of the same compound?
Answer: 100

Question: And the KinomeScan value (FLT3 (ITD))?
Answer: 94

Question: And the remaining activity at 1 µM (MAPKAP-K3; [8])?
Answer: 97%

Question: What about the remaining activity at 1 µM (MAPKAP-K3; [9]) of the same compound?
Answer: 84%

Question: And the “percent remaining enzymatic activity” value (JNK2; I10)?
Answer: 4%

Question: What about the remaining activity at 1 µM (JNK2; [10]) of the same compound?
Answer: 27%

Question: And the remaining activity at 1 µM (ASK1; [8])?
Answer: 56%

Question: And the remaining activity at 1 µM (ASK1; [9])?
Answer: 10%

Question: What about the KinomeScan value [4] of the same compound?
Answer: 77

Question: And the “percent remaining enzymatic activity” value (ULK1; I10)?
Answer: 95%

Question: What about the remaining activity at 1 µM (ULK1; [10]) of the same compound?
Answer: 103%

Question: What about the KinomeScan value (SNARK) of the same compound?
Answer: 100

Question: What about the KinomeScan value (BMPR2) of the same compound?
Answer: 100

Question: What about the “percent remaining enzymatic activity” value (MST3 [5]; I10) of the same compound?
Answer: 95%

Question: And the remaining activity at 1 µM (MST3 [5]; [10])?
Answer: 102%

Question: And the remaining activity at 1 µM (IRR; [8])?
Answer: 31%

Question: And the remaining activity at 1 µM (IRR; [9])?
Answer: 10%

Question: And the remaining activity at 1 µM (MARK2; [8])?
Answer: 101%

Question: And the remaining activity at 1 µM (MARK2; [9])?
Answer: 82%

Question: And the KinomeScan value (JNK1)?
Answer: 60

Question: What about the KinomeScan value (MST3 [6]) of the same compound?
Answer: 91

Question: What about the remaining activity at 1 µM (p38g MAPK; [8]) of the same compound?
Answer: 116%

Question: What about the remaining activity at 1 µM (p38g MAPK; [9]) of the same compound?
Answer: 96%

Question: And the KinomeScan value [7]?
Answer: 84

Question: What about the remaining activity at 1 µM (TBK1; [8]) of the same compound?
Answer: 88%

Question: And the remaining activity at 1 µM (TBK1; [9])?
Answer: 67%

Question: What about the KinomeScan value (ACVR2B) of the same compound?
Answer: 100

Reference: patent US10913744B2, “LRRK2 inhibitors and methods of making and using the same” (Dana-Farber Cancer Institute, Inc., priority 2015, dated 2021)
